Laboratory results published in US20030185864A1, “Preventives or remedies for atopic dermatitis” (priority 2000, published 2003).

Columns and labels:
[1] = test system: epidermal ceramide synthesis; experiment: Evaluation of the amount of epidermal ceramide synthesis in hairless mice; assay type: in vivo, hairless mouse (SKH1:hr/hr:BR); details: for Relative amount of total ceramide synthesis (%) / Relative amount of ceramide III synthesis (%): relative to untreated mice; for Relative amount of ceramide III synthesis (%): 200 μl to dorsal skin once a day for one month, ceramide III = ceramides 1 and 2
Method: Test Compositions 1 to 5 were obtained by preparing 30% by weight aqueous ethanol solutions containing 0, 1.0, 3.0, 5.0 and 10.0% by weight, respectively, of N-acetyl-trans-4-hydroxy-L-proline. The pH values of the aqueous solutions were adjusted to 4.5 with sodium hydroxide.
Each of Test Compositions 1 to 5 was applied at 200 μl to the entire dorsal area as the tested region of each hairless mouse (SKH1:hr/hr:BR, male, 7 week old, available from Charles River Japan, Inc.) once a day for one month. The mice were used as four animals per each group.
Before starting of the application and one month after starting of the application, epidermal lipids were extracted from the entire dorsal area as the tested region of each mouse, and the activity of N-acetyl-trans-4-hydroxy-L-proline to synthesize ceramide was evaluated by measuring the ceramide content.
The epidermal lipids were obtained by extraction with 95% ethanol and further extracting the extract with hexane:methanol (2:3), followed by drying. The resulting epidermal lipids were dissolved in chloroform and separated by using silica gel thin layer chromatography in a manner similar to the method of Imokawa et al. [Journal of Investigative Dermatology, 96, 523 (1991)], and then the ceramide content was measured using a flying-spot scanning densitometer (manufactured by Shimadzu Corporation, CS-9000).
The ceramide content was calculated in accordance with the following equation, as the relative value to the change in the amount of ceramide synthesis in untreated mice.
Relative amount of ceramide synthesis (%)=[(A1×B2)/(A2×B1)]×100
A1: Ceramide content after application in tested mice
A2: Ceramide content before application in tested mice
B1: Ceramide content after application in untreated mice
B2: Ceramide content before application in untreated mice
Since it is known that the ceramides exist in several isomer forms, the calculation was carried out on each of the amount of total ceramide synthesis and those of syntheses of various ceramide isomers. As the standards, ceramide III (consisting of ceramides 1 and 2) and ceramide IV (consisting of ceramides 4 and 5) both manufactured by Sigma wer used. Here, total ceramide means the total of ceramides 1, 2, 4 and 5, and ceramide III means the total of ceramides 1 and 2. The ceramides 1, 2, 4 and 5 correspond to the compounds 1, 2, 4 and 5, respectively, described in FIG. 2 of Journal of Lipid Research, 24, 559 (1983).

[2] = test system: auricular edema in atopic dermatitis-induced model mice (Type I Allergy Model); experiment: Auricular edema inhibition in atopic dermatitis-induced model mice (type I allergy model, tick extract); assay type: in vivo, NC/Nga mouse; details: for Relative auricular edema increase (%): 20 μl to both sides of auricle once a day from 7th day, measured on 28th day, mean ± SD, n=6
Method: Test Compositions 6 to 8 were obtained by preparing 30% by weight aqueous ethanol solutions containing 0, 1.0 and 3.0% by weight, respectively, of N-acetyl-trans-4-hydroxy-L-proline. The pH values of the aqueous solutions were adjusted to 4.5 with sodium hydroxide.
Atopic dermatitis using NC/Nga mice was carried out in a same manner similar to the method of Sasagawa et al. [16th Japanese Society of Disease Models (1999)]. Auricular edema was induced by intradermal injection of 20 μg of a tick (Dermatophagoides pteronyssinus) extract as the antigen into the auricle of NC/Nga mouse (male, 8 week old, available from Charles River Japan, Inc.), once a day at a predetermined time in the 1st day, 3rd day and every day from 7th days after starting of the test. Each of Test Compositions 6 to 8 was applied at 20 μl to both sides of the auricle as the tested region, 6 hours after administration of the tick extract, once a day from the 7th day after starting of the test. The mice were used as six animals per each group.
A thickness of the auricle was measured on the 28th day after starting of the test using a dial thickness gauge (G-1A, manufactured by PEACOCK), and the relative auricular edema increase (%) was calculated in accordance with the following equation.
(§1) Relative auricular edema increase (%)=[(A1×B2)/(A2×B1)]×100
(§2) A1: Thickness of auricle after passed days in tested mice
(§3) A2: Thickness of auricle at the time of starting of the test in tested mice
(§4) B1: Thickness of auricle after passed days in untreated mice
(§5) B2: Thickness of auricle at the time of starting of the test in untreated mice

[3] = test system: auricular edema in atopic dermatitis-induced model mice (Type I and Type IV Allergy Models); experiment: Auricular edema inhibition in atopic dermatitis-induced model mice (type I and type IV allergy models, DNCB); assay type: in vivo, NC/Nga mouse; details: for Relative auricular edema increase (%): 3% by weight, 20 μl to both sides of auricle once a day, mean ± SD, n=6
Method: Test Compositions 9 and 10 were obtained by preparing 30% by weight ethanol solutions containing 0 and 3.0% by weight, respectively, of N-acetyl-trans-4-hydroxy-L-proline. The pH values of the aqueous solutions were adjusted to 4.5 with sodium hydroxide.
Atopic dermatitis using NC/Nga mice was carried out in a manner similar to the method of Fujii et al. [Fundamentals and Clinics (Kiso-to-Rinsho), 31(8), 2693 (1997)]. Auricular edema was induced by applying 20 μl of 1.5% dinitrochlorobenzene (DNCB) to both sides of the auricle of NC/Nga mouse (male, 8 week old, available from Charles River Japan, Inc.), once a day at a predetermined time in the 1st, 3rd and 7th days after starting of the test. Each of Test Compositions 9 and 10 was applied at 20 μl to both sides of the auricle as the tested region, 6 hours after the application of DNCB and once a day every day from the 1st day after starting of the test. The mice were used as six animals per each group.
Just before the application of the test compositions to the auricle on the 11th, 12th, 14th and 17th days after starting of the test, a thickness of the auricle was measured using a dial thickness gauge (G-1A, manufactured by PEACOCK), and the relative auricular edema increase (%) was calculated in accordance with the following equation.
as §1, §2, §3, §4, §5

[4] = concentration of 1 to 3% by weight, long period of continuous use

CC(=O)N1C[C@H](O)C[C@H]1C(=O)O [N-acetyl-trans-4-hydroxy-L-proline]
Relative amount of total ceramide synthesis (%) ([1]; 1% by weight in 30% aqueous ethanol pH 4.5, 200 μl to dorsal skin once a day for one month): 218.6%
Relative amount of ceramide III synthesis (%) ([1]; 1% by weight): 239.5%
Relative amount of total ceramide synthesis (%) ([1]; 3% by weight in 30% aqueous ethanol pH 4.5, 200 μl to dorsal skin once a day for one month): 170.6%
Relative amount of ceramide III synthesis (%) ([1]; 3% by weight): 321.1%
Relative amount of ceramide III synthesis (%) ([1]; 5% by weight): 209.6%
Relative amount of ceramide III synthesis (%) ([1]; 10% by weight): 185.9%
total ceramide content in the epidermal stratum corneum [1, 4]: significant increase
ceramide III in the epidermal stratum corneum ([1]; concentration of 1 to 10% by weight, long period of continuous use): significant increase
Relative auricular edema increase (%) ([2]; 1% by weight): 120.9 ± 3.5%
Relative auricular edema increase (%) ([2]; 3% by weight): 110.1 ± 4.4%
inhibition of auricular edema caused by the type I allergy model [2, 4]: significantly inhibited
Relative auricular edema increase (%) ([3]; 11th day after starting of test): 360.1 ± 64.2%
Relative auricular edema increase (%) ([3]; 12th day after starting of test): 399.7 ± 55.9%
Relative auricular edema increase (%) ([3]; 14th day after starting of test): 429.0 ± 72.3%
Relative auricular edema increase (%) ([3]; 17th day after starting of test): 312.1 ± 50.6%
inhibition of auricular edema caused by the type I and type IV allergy models ([3]; concentration of 3% by weight, long period of continuous use): significantly inhibited
